Reference: patent publication US12497530B2, “Active energy ray polymerization initiator, active energy ray curing composition, active energy ray curing ink, aqueous active energy ray curing ink, container, image forming device, image forming method, and method of manufacturing active energy ray polymerization initiator” (Ricoh Company, Ltd., priority 2021, dated 2025)

Assay: Absorption spectrum in methylene chloride at 50 ppm
Format: physicochemical
Settings: for Absorption of light (absorption spectrum): methylene chloride, 50 ppm, FIGS. 1 to 4
Description: One way of measuring the λmax of an active energy ray polymerization initiator is to dissolve an active energy ray polymerization initiator in methylene chloride at 50 ppm followed by measuring the absorption spectrum of this solution by a spectrophotometer for ultraviolet, visible light, and near infrared, V-680, manufactured by JASCO Corporation.
The absorption spectrum was measured by a spectrophotometer V-680 for UV, visible light, and near IR, manufactured by JASCO Corporation.
The absorption spectra of the active energy ray polymerization initiators Ref-1, Ref-2, and Ref-4 were measured as described above.

Compound	Support of LED light source of 365 nm, 385 nm, and 395 nm (judged from absorption spectrum)	Absorption of light (absorption spectrum)
CCCCCCCCCCCCOc1ccc2sc3ccccc3c(=O)c2c1 [Ref-1, 2-dodecyloxy thioxanthone]	support an LED light source of 365 nm, 385 nm, and 395 nm	fully absorb light having a wavelength of 400 nm or less
CC(C)(O)C(=O)c1ccccc1 [Ref-4, 2-Hydroxy-2-methyl-1-phenylpropane-1-one]		does not absorb light having a wavelength of 350 nm or greater at all
